Values joined by “and” are separate entries in the source; they are usually repeats but may differ in a detail not shown here. Equal entries are not always repeated.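 Step 1: Grow cells in 96-well plates. Step 2: Expose to compound for 48 hours at 5 concentrations. Step 3: Interpolate endpoints linearly; if unreached, use highest concentration. GI50: concentration for 50% inhibition of growth. TGI marks complete inhibition of growth.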
Legend:
Experiment in all cases: inhibition of tumour cell growth, NCI panel, 48 h
TK-10 renal = system: TK-10 renal
COLO 205 colon = system: COLO 205 colon
EKVX NSCLC = system: EKVX NSCLC
SK-MEL-5 melanoma = system: SK-MEL-5 melanoma
CCRF-CEM leukemia = system: CCRF-CEM leukemia
OVCAR-8 ovarian = system: OVCAR-8 ovarian
MALME-3M melanoma = system: MALME-3M melanoma
MDA-MB-435 = system: MDA-MB-435
NCI-H522 lung = system: NCI-H522 lung
NCI-H226 lung = system: NCI-H226 lung

With `CCC1C(C)c2c([nH]c3ccccc23)C2C(=O)N(c3ccccc3)C(=O)C21` (centres undefined) the TGI (TK-10 renal) was 89.2 µM, the TGI (COLO 205 colon) was 30.7 µM and the TGI (EKVX NSCLC) was 38.3 µM. The TGI (SK-MEL-5 melanoma) was 28.8 µM, the TGI (CCRF-CEM leukemia) was 71.9 µM and the TGI (OVCAR-8 ovarian) was 28.7 µM. The TGI (MALME-3M melanoma) was 30.4 µM.

`O=c1[nH]cc(CS(=O)(=O)Cc2c[nH]c(=O)[nH]c2=O)c(=O)[nH]1` gave a TGI (TK-10 renal) of over 100 µM, a TGI (MDA-MB-435) of over 100 µM and a TGI (COLO 205 colon) of over 100 µM. For the same compound, the TGI (EKVX NSCLC) was over 100 µM, the TGI (SK-MEL-5 melanoma) was over 100 µM and the TGI (OVCAR-8 ovarian) was over 100 µM. For the same compound, the TGI (MALME-3M melanoma) was over 100 µM, the TGI (NCI-H522 lung) was over 100 µM and the TGI (NCI-H226 lung) was over 100 µM.

With `CN(C)c1ccc(/C=C2\C[C@H]3[C@@H]4CC=C5C[C@@H](N6CCCC6)CC[C@]5(C)[C@H]4CC[C@]3(C)[C@H]2O)cc1` the GI50 (TK-10 renal) was 3.76 µM, the TGI (TK-10 renal) was 3.17 µM and 11.7 µM and the TGI (MDA-MB-435) was 5.37 µM. For the same compound, the TGI (COLO 205 colon) was 4.12 µM, the GI50 (EKVX NSCLC) was 3.67 µM and the TGI (EKVX NSCLC) was 7.72 µM and 26.4 µM. For the same compound, the GI50 (SK-MEL-5 melanoma) was 3.44 µM, the TGI (SK-MEL-5 melanoma) was 1.62 µM and 12.7 µM and the GI50 (OVCAR-8 ovarian) was 2.87 µM. For the same compound, the TGI (OVCAR-8 ovarian) was 1.75 µM and 5.47 µM, the GI50 (MALME-3M melanoma) was 2.55 µM and the TGI (MALME-3M melanoma) was 1.69 µM and 8.35 µM. The TGI (NCI-H522 lung) was 2.25 µM and the GI50 (NCI-H226 lung) was 14 µM.

With `C=C(CN1CCN(c2ccccc2OC)CC1)c1ccc(C(=O)Nc2ccccc2N)cc1` the GI50 (TK-10 renal) was 1.2 µM, the TGI (TK-10 renal) was 9.07 µM and the GI50 (MDA-MB-435) was 1.27 µM. The TGI (MDA-MB-435) was 3.38 µM, the GI50 (COLO 205 colon) was 8.31 µM and the TGI (COLO 205 colon) was 37.2 µM. The GI50 (EKVX NSCLC) was 10.6 µM, the TGI (EKVX NSCLC) was over 50 µM and the GI50 (SK-MEL-5 melanoma) was 2.58 µM. For the same compound, the TGI (SK-MEL-5 melanoma) was 11.3 µM, the GI50 (OVCAR-8 ovarian) was 9.28 µM and the TGI (OVCAR-8 ovarian) was 32.4 µM.

In the case of `Cc1c[nH]c2c1C13CC1CN(C(=O)c1cc4cc(NC(=O)c5cc6ccccc6o5)ccc4[nH]1)C3=CC2=O` (centres undefined), the TGI (TK-10 renal) is reported as under 0.001 µM, the GI50 (SK-MEL-5 melanoma) is reported as over 1.17 ng/mL and the TGI (SK-MEL-5 melanoma) is reported as under 0.001 µM. It also gave a GI50 (CCRF-CEM leukemia) of over 1.17 ng/mL, a TGI (CCRF-CEM leukemia) of 0.0682 µM and a GI50 (OVCAR-8 ovarian) of over 1.17 ng/mL. The TGI (OVCAR-8 ovarian) was under 0.001 µM, the TGI (MALME-3M melanoma) was under 0.001 µM and the GI50 (NCI-H522 lung) was over 1.17 ng/mL. For the same compound, the TGI (NCI-H522 lung) was under 0.001 µM and the TGI (NCI-H226 lung) was under 0.001 µM.

`S=c1nc[nH]c2c1ncn2Cc1ccco1` showed a TGI (TK-10 renal) of over 100 µM, a TGI (MDA-MB-435) of over 100 µM and a TGI (COLO 205 colon) of over 100 µM. The TGI (EKVX NSCLC) was over 100 µM, the TGI (SK-MEL-5 melanoma) was over 100 µM and the TGI (OVCAR-8 ovarian) was over 100 µM. For the same compound, the TGI (MALME-3M melanoma) was over 100 µM, the TGI (NCI-H522 lung) was over 100 µM and the TGI (NCI-H226 lung) was over 100 µM.

`Cc1cccc(NC(=O)C(=O)C2C(=O)NC(=O)NC2=O)c1C` was tested, and the TGI (TK-10 renal) was over 100 µM, the TGI (COLO 205 colon) was over 100 µM and the TGI (EKVX NSCLC) was over 100 µM. The TGI (SK-MEL-5 melanoma) was over 100 µM, the TGI (CCRF-CEM leukemia) was over 100 µM and the TGI (OVCAR-8 ovarian) was over 100 µM. The TGI (MALME-3M melanoma) was over 100 µM, the TGI (NCI-H522 lung) was over 100 µM and the TGI (NCI-H226 lung) was over 100 µM.

Work on `Cc1ccc(S(=O)(=O)N(/N=C(\N)Oc2ccc(Cl)cc2)C(=N)Oc2ccc(Cl)cc2)cc1` yielded a TGI (TK-10 renal) of over 100 µM, a TGI (COLO 205 colon) of over 100 µM and a TGI (EKVX NSCLC) of over 100 µM. For the same compound, the TGI (SK-MEL-5 melanoma) was over 100 µM, the TGI (CCRF-CEM leukemia) was over 100 µM and the TGI (OVCAR-8 ovarian) was over 100 µM. For the same compound, the TGI (MALME-3M melanoma) was over 100 µM, the TGI (NCI-H522 lung) was over 100 µM and the TGI (NCI-H226 lung) was over 100 µM.

`COC(=O)c1c[nH]c(=O)[nH]c1=O` showed a TGI (TK-10 renal) of over 100 µM, a TGI (MDA-MB-435) of over 100 µM and a TGI (COLO 205 colon) of over 100 µM. For the same compound, the TGI (EKVX NSCLC) was over 100 µM, the TGI (SK-MEL-5 melanoma) was over 100 µM and the TGI (CCRF-CEM leukemia) was over 100 µM. It also gave a TGI (OVCAR-8 ovarian) of over 100 µM and a TGI (NCI-H522 lung) of over 100 µM.

`COc1ccc(-c2nn(-c3cccc(Cl)c3)cc2C=C(C#N)C#N)cc1` gave a GI50 (TK-10 renal) of 2.6 µM, a TGI (TK-10 renal) of 6.48 µM and a GI50 (COLO 205 colon) of 4.04 µM. It also gave a TGI (COLO 205 colon) of 10.5 µM, a GI50 (SK-MEL-5 melanoma) of 2.28 µM and a TGI (SK-MEL-5 melanoma) of 5.87 µM. It also gave a GI50 (CCRF-CEM leukemia) of 1.43 µM, a TGI (CCRF-CEM leukemia) of 4.76 µM and a GI50 (OVCAR-8 ovarian) of 2.2 µM. The TGI (OVCAR-8 ovarian) was 5.77 µM, the GI50 (MALME-3M melanoma) was 2.66 µM and the TGI (MALME-3M melanoma) was 7.76 µM. It also gave a GI50 (NCI-H522 lung) of 2.21 µM, a TGI (NCI-H522 lung) of 5.76 µM and a GI50 (NCI-H226 lung) of 2.74 µM. The TGI (NCI-H226 lung) was 11.8 µM.
